Assay results: paper PMC6251811 (Acta Pharmaceutica Sinica. B, 2018)

Experiments:
[1] = tested on: type-I interferon signaling pathway; test: SEAP reporter gene assay in HEK-Blue IFNα/β cells stimulated with IFN-α2a; type: cell-based; settings: Homo sapiens
[2] = tested on: Phospho-STAT1 (Tyr701); test: Western blot of STAT1 phosphorylation in HEK-Blue IFNα/β cells after IFN-α2a; type: cell-based, human; settings: niclosamide 10 μmol/L (Fig. 5B, Fig. S2)
[3] = tested on: Phospho-STAT1 (Tyr701); test: Western blot of STAT1 phosphorylation in SH-SY5Y cells after IFN-α2a; type: cell-based, human; settings: niclosamide 10 μmol/L (Fig. 6B)
[4] = tested on: IRF7 mRNA; test: IRF7 mRNA quantitative PCR in SH-SY5Y cells; type: cell-based, human; settings: positive control niclosamide, IFN-α2a 1 h
[5] = tested on: STAT3 phosphorylation; settings: concentrations below 10 μmol/L; cited from earlier work

Compound: O=C(Nc1ccc([N+](=O)[O-])cc1Cl)c1cc(Cl)ccc1O [niclosamide, Niclosamide]
- IC50 [1]: 370 nM
- effect on STAT1 phosphorylation [2]: also inhibited STAT1 phosphorylation
- effect on STAT1 phosphorylation [3]: also inhibited STAT1 phosphorylation
- IRF7 level after compound plus IFN-α2a [4]: 0.84±0.07 folds
- effect on STAT phosphorylation [5]: only inhibit STAT3 phosphorylation
